From patent US10568950B1, “Peptides, combination of peptides and scaffolds for use in immunotherapeutic treatment of various cancers” (Immatics Biotechnologies GmbH, priority 2015, dated 2020)
Blank lines part the entries; values can stand above or below the substance they belong to.

Assays:
HLA-A*02 = HLA-A*02 (Homo sapiens, UniProt P04439, D140Y/D185E/D98H/E176V/E277Q/G131W/G231S/I119V/I121R/I166T/I218V/N151K/N90K/P208A/P217A/Q86G/Q94H/R138H/R169H); assay: MHC binding assay: UV-ligand exchange, beta2m ELISA (peptide exchange yield); conditions: binding to HLA-A*02, β2m ELISA
Source text: Candidate peptides for T cell based therapies according to the present invention were further tested for their MHC binding capacity (affinity). The individual peptide-MHC complexes were produced by UV-ligand exchange, where a UV-sensitive peptide is cleaved upon UV-irradiation, and exchanged with the peptide of interest as analyzed. Only peptide candidates that can effectively bind and stabilize the peptide-receptive MHC molecules prevent dissociation of the MHC complexes. To determine the yield of the exchange reaction, an ELISA was performed based on the detection of the light chain (β2m) of stabilized MHC complexes. The assay was performed as generally described in Rodenko et al. (Rodenko et al., 2006).
96 well MAXISorp plates (NUNC) were coated over night with 2 ug/ml streptavidin in PBS at room temperature, washed 4× and blocked for 1 h at 37° C. in 2% BSA containing blocking buffer. […] Peptide-MHC monomers of the UV-exchange reaction were diluted 100 fold in blocking buffer. Samples were incubated for 1 h at 37° C., washed four times, incubated with 2 ug/ml HRP conjugated anti-βm for 1 h at 37° C., washed again and detected with TMB solution that is stopped with […]. Absorption was measured at 450 nm. Candidate peptides that show a high exchange yield (preferably higher than 50%, most preferred higher than 75%) are generally preferred for a generation and production of antibodies or fragments thereof, and/or T cell receptors or fragments thereof, as they show sufficient avidity to the MHC molecules and prevent dissociation of the MHC complexes.

[1] = system: CD8+ T cells of healthy HLA-A*02+ donors; assay: In vitro immunogenicity: priming of CD8+ T cells with aAPCs loaded with HLA-A*02/peptide complexes and anti-CD28, multimer staining; type: cell-based, human; conditions: HLA-A*02 peptides of Table 12B
Experimental: CD8+ T cells were primed using artificial APCs coated with anti-CD28 mAb and HLA-A*02 in complex with SEQ ID NO: 2 peptide (FIG. 4A, left panel), SEQ ID NO: 9 peptide (FIG. 4B, left panel) and SEQ ID NO: 331 peptide (FIG. 4C, left panel), respectively. After three cycles of stimulation, the detection of peptide-reactive cells was performed by 2D multimer staining with A*02/SEQ ID NO: 2 (A), A*02/SEQ ID NO: 9 (B) or A*02/SEQ ID NO: 331 (C). Right panels (FIGS. 4A, 4B and 4C) show control staining of cells stimulated with irrelevant A*02/peptide complexes. Viable singlet cells were gated for CD8+ lymphocytes. Boolean gates helped excluding false-positive events detected with multimers specific for different peptides. Frequencies of specific multimer+ cells among CD8+ lymphocytes are indicated.
(§1) In order to obtain information regarding the immunogenicity of the TUMAPs of the present invention, the inventors performed investigations using an in vitro T-cell priming assay based on repeated stimulations of CD8+ T cells with artificial antigen presenting cells (aAPCs) loaded with peptide/MHC complexes and anti-CD28 antibody.
In order to perform in vitro stimulations by artificial antigen presenting cells loaded with peptide-MHC complex (pMHC) and anti-CD28 antibody, the inventors first isolated CD8+ T cells from fresh HLA-A*02 leukapheresis products via positive selection using CD8 microbeads (Miltenyi Biotec, Bergisch-Gladbach, Germany) of healthy donors obtained from the University clinics Mannheim, Germany, after informed consent.
(§2) PBMCs and isolated CD8+ lymphocytes were incubated in T-cell medium (TCM) until use consisting of RPMI-Glutamax (Invitrogen, Karlsruhe, Germany) supplemented with 10% heat inactivated human AB serum (PAN-Biotech, Aidenbach, Germany), 100 U/ml Penicillin/100 μg/ml Streptomycin (Cambrex, Cologne, Germany), 1 mM sodium pyruvate (CC Pro, Oberdorla, Germany), 20 μg/ml Gentamycin (Cambrex). 2.5 ng/ml IL-7 (PromoCell, Heidelberg, Germany) and 10 U/ml IL-2 (Novartis Pharma, Nurnberg, Germany) were also added to the TCM at this step.
(§3) Generation of pMHC/anti-CD28 coated beads, T-cell stimulations and readout was performed in a highly defined in vitro system using four different pMHC molecules per stimulation condition and 8 different pMHC molecules per readout condition.
(§4) The purified co-stimulatory mouse IgG2a anti human CD28 Ab 9.3 (Jung et al., 1987) was chemically biotinylated using Sulfo-N-hydroxysuccinimidobiotin as recommended by the manufacturer (Perbio, Bonn, Germany). Beads used were 5.6 μm diameter streptavidin coated polystyrene particles (Bangs Laboratories, Illinois, USA).
pMHC used for positive and negative control stimulations were A*0201/MLA-001 (peptide […] (SEQ ID NO. 418) from modified Melan-A/MART-1) and A*0201/DDX5-001 ([…] from DDX5, SEQ ID NO. 419), respectively.
800.000 beads/200 μl were coated in 96-well plates in the presence of 4×12.5 ng different biotin-pMHC, washed and 600 ng biotin anti-CD28 were added subsequently in a volume of 200 μl. Stimulations were initiated in 96-well plates by co-incubating 1×10^6 CD8+ T cells with 2×10^5 washed coated beads in 200 μl TCM supplemented with 5 ng/ml IL-12 (PromoCell) for 3 days at 37° C. Half of the medium was then exchanged by fresh TCM supplemented with 80 U/ml IL-2 and incubating was continued for 4 days at 37° C. This stimulation cycle was performed for a total of three times. For the pMHC multimer readout using 8 different pMHC molecules per condition, a two-dimensional combinatorial coding approach was used as previously described (Andersen et al., 2012) with minor modifications encompassing coupling to 5 different fluorochromes. Finally, multimeric analyses were performed by staining the cells with Live/dead near IR dye (Invitrogen, Karlsruhe, Germany), CD8-FITC antibody clone SKI (BD, Heidelberg, Germany) and fluorescent pMHC multimers. For analysis, a BD LSRII SORP cytometer equipped with appropriate lasers and filters was used. […]

HLA-A*24 = assay: MHC binding assay: UV-ligand exchange, beta2m ELISA (peptide exchange yield); design: species or system human; conditions: binding to HLA-A*24, β2m ELISA
[2] = system: CD8+ T cells of healthy HLA-A*24+ donors; assay: In vitro immunogenicity: priming of CD8+ T cells with aAPCs loaded with HLA-A*24/peptide complexes and anti-CD28, multimer staining; type: cell-based, human; conditions: in vitro immunogenicity, HLA-A*24 peptides of Table 12B
Experimental: CD8+ T cells were primed using artificial APCs coated with anti-CD28 mAb and HLA-A*24 in complex with SEQ ID NO: 99 peptide (FIG. 5A, left panel), SEQ ID NO: 119 peptide (FIG. 5B, left panel), SEQ ID NO: 142 peptide (FIG. 5C, left panel) and SEQ ID NO: 174 peptide (FIG. 5D, left panel), respectively. After three cycles of stimulation, the detection of peptide-reactive cells was performed by 2D multimer staining with A*24/SEQ ID NO: 99 (A), A*24/SEQ ID NO: 119 (B), A*24/SEQ ID NO: 142 (C) or A*24/SEQ ID NO: 174 (D). Right panels (FIGS. 5A, 5B, 5C and 5D) show control staining of cells stimulated with irrelevant A*24/peptide complexes. Viable singlet cells were gated for CD8+ lymphocytes. Boolean gates helped excluding false-positive events detected with multimers specific for different peptides. Frequencies of specific multimer+ cells among CD8+ lymphocytes are indicated.
as §1, §2, §3, §4
800.000 beads/200 μl were coated in 96-well plates in the presence of 4×12.5 ng different biotin-pMHC, washed and 600 ng biotin anti-CD28 were added subsequently in a volume of 200 μl. Stimulations were initiated in 96-well plates by co-incubating […] CD8+ T cells with 2×10^5 washed coated beads in 200 μl TCM supplemented with 5 ng/ml IL-12 (PromoCell) for 3 days at 37° C. Half of the medium was then exchanged by fresh TCM supplemented with 80 U/ml IL-2 and incubating was continued for 4 days at 37° C. This stimulation cycle was performed for a total of three times. For the pMHC multimer readout using 8 different pMHC molecules per condition, a two-dimensional combinatorial coding approach was used as previously described (Andersen et al., 2012) with minor modifications encompassing coupling to 5 different fluorochromes. Finally, multimeric analyses were performed by staining the cells with Live/dead near IR dye (Invitrogen, Karlsruhe, Germany), CD8-FITC antibody clone SKI (BD, Heidelberg, Germany) and fluorescent pMHC multimers. For analysis, a BD LSRII SORP cytometer equipped with appropriate lasers and filters was used. Peptide specific cells were calculated as percentage of total CD8+ cells. Evaluation of multimeric analysis was done using the FlowJo software (Tree Star, Oreg., USA). In vitro priming of specific multimer+ CD8+ lymphocytes was detected by comparing to negative control stimulations.

- Peptide exchange (MHC class I binding score, peptide exchange yield) (HLA-A*02): +++ (50%-75% = +++)
Substance: 2 (ALYGKLLKL; listed as Homo sapiens) [compound 2]
- Wells positive [%] [1]: ++++ (>= 70 % = ++++)

- Peptide exchange (MHC class I binding score, peptide exchange yield) (HLA-A*02): ++ (20%-49% = ++)
Substance: 9 (FLGDYVENL; listed as Homo sapiens) [compound 9]
- Wells positive [%] [1]: + (<20% = +)

- Peptide exchange (MHC class I binding score, peptide exchange yield) (HLA-A*24): ++++ (>= 75% = ++++)
Substance: 132 (RYPALFPVL; listed as Homo sapiens) [compound 132]
- Wells positive [%] [2]: + (<20% = +)

- Peptide exchange (MHC class I binding score, peptide exchange yield) (HLA-A*24): ++++ (>= 75% = ++++)
Substance: 137 (EYLHNCSYF; listed as Homo sapiens) [compound 137]
- Wells positive [%] [2]: + (<20% = +)

- Peptide exchange (MHC class I binding score, peptide exchange yield) (HLA-A*24): ++++ (>= 75% = ++++)
Substance: 144 (VFASLPGFLF; listed as Homo sapiens) [compound 144]
- Wells positive [%] [2]: ++ (20%-49% = ++)

- Peptide exchange (MHC class I binding score, peptide exchange yield) (HLA-A*24): ++++ (>= 75% = ++++)
Substance: 155 (IYKWITDNF; listed as Homo sapiens) [compound 155]
- Wells positive [%] [2]: ++ (20%-49% = ++)

- Peptide exchange (MHC class I binding score, peptide exchange yield) (HLA-A*24): ++++ (>= 75% = ++++)
Substance: 156 (YYMELTKLLL; listed as Homo sapiens) [compound 156]
- Wells positive [%] [2]: + (<20% = +)

- Peptide exchange (MHC class I binding score, peptide exchange yield) (HLA-A*24): ++++ (>= 75% = ++++)
Substance: 163 (RYLTISNLQF; listed as Homo sapiens) [compound 163]
- Wells positive [%] [2]: + (<20% = +)

- Peptide exchange (MHC class I binding score, peptide exchange yield) (HLA-A*24): ++++ (>= 75% = ++++)
Substance: 170 (QYPFHVPLL; listed as Homo sapiens) [compound 170]
- Wells positive [%] [2]: +++ (50%-69% = +++)

- Peptide exchange (MHC class I binding score, peptide exchange yield) (HLA-A*24): ++++ (>= 75% = ++++)
Substance: 182 (AYAQLGYLLF; listed as Homo sapiens) [compound 182]
- Wells positive [%] [2]: +++ (50%-69% = +++)

- Peptide exchange (MHC class I binding score, peptide exchange yield) (HLA-A*24): ++++ (>= 75% = ++++)
Substance: 186 (VFTTSSNIF; listed as Homo sapiens) [compound 186]
- Wells positive [%] [2]: + (<20% = +)

- Peptide exchange (MHC class I binding score, peptide exchange yield) (HLA-A*02): +++ (50%-75% = +++)
Substance: 322 (ALVSGGVAQA; listed as Homo sapiens) [compound 322]
- Wells positive [%] [1]: + (<20% = +)

- Peptide exchange (MHC class I binding score, peptide exchange yield) (HLA-A*24): ++++ (>= 75% = ++++)
Substance: 359 (NYGVLHVTF; listed as Homo sapiens) [compound 359]
- Wells positive [%] [2]: + (<20% = +)

- Peptide exchange (MHC class I binding score, peptide exchange yield) (HLA-A*24): ++++ (>= 75% = ++++)
Substance: 380 (VYTGIDHHW; listed as Homo sapiens) [compound 380]
- Wells positive [%] [2]: + (<20% = +)

Second part, the substance before the results:

Substance: 7 (AAAAKVPEV; listed as Homo sapiens) [compound 7]
- Peptide exchange (MHC class I binding score, peptide exchange yield) (HLA-A*02): +++ (50%-75% = +++)
- Wells positive [%] [1]: + (<20% = +)

Substance: 8 (KLGPFLLNA; listed as Homo sapiens) [compound 8]
- Peptide exchange (MHC class I binding score, peptide exchange yield) (HLA-A*02): +++ (50%-75% = +++)
- Wells positive [%] [1]: +++ (50%-69% = +++)

Substance: 17 (ILHEHHIFL; listed as Homo sapiens) [compound 17]
- Peptide exchange (MHC class I binding score, peptide exchange yield) (HLA-A*02): +++ (50%-75% = +++)
- Wells positive [%] [1]: + (<20% = +)

Substance: 43 (LLWAGPVTA; listed as Homo sapiens) [compound 43]
- Peptide exchange (MHC class I binding score, peptide exchange yield) (HLA-A*02): +++ (50%-75% = +++)
- Wells positive [%] [1]: ++++ (>= 70 % = ++++)

Substance: 140 (RYLINSYDF; listed as Homo sapiens) [compound 140]
- Peptide exchange (MHC class I binding score, peptide exchange yield) (HLA-A*24): ++++ (>= 75% = ++++)
- Wells positive [%] [2]: +++ (50%-69% = +++)

Substance: 166 (FYTLPFHLI; listed as Homo sapiens) [compound 166]
- Peptide exchange (MHC class I binding score, peptide exchange yield) (HLA-A*24): ++++ (>= 75% = ++++)
- Wells positive [%] [2]: ++++ (>= 70 % = ++++)

Substance: 172 (VFIFKGNEF; listed as Homo sapiens) [compound 172]
- Peptide exchange (MHC class I binding score, peptide exchange yield) (HLA-A*24): ++++ (>= 75% = ++++)
- Wells positive [%] [2]: + (<20% = +)

Substance: 356 (NYMPGQLTI; listed as Homo sapiens) [compound 356]
- Peptide exchange (MHC class I binding score, peptide exchange yield) (HLA-A*24): ++++ (>= 75% = ++++)
- Wells positive [%] [2]: + (<20% = +)

Substance: 365 (VFIDHPVHL; listed as Homo sapiens) [compound 365]
- Peptide exchange (MHC class I binding score, peptide exchange yield) (HLA-A*24): ++++ (>= 75% = ++++)
- Wells positive [%] [2]: + (<20% = +)
